Laboratory results taken from US12606548B2, “Fungicidal oxadiazoles” (FMC CORPORATION, priority 2019, dated 2026).
Marks after values point to notes of the source that are not given here.

Columns and labels:
Format in all cases: in vivo
Phakopsora pachyrhizi = assay: Test A: test suspension sprayed on soybean seedlings, inoculated next day with Phakopsora pachyrhizi (Asian soybean rust), visual disease rating; details: for Test A rating (% disease control): relative to the controls
Outline: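 Compounds first dissolved in acetone (3% of final volume), then suspended in acetone/water 50/50 with 250 ppm PEG400 and sprayed to run-off on soybean seedlings at the stated ppm rate. Inoculated next day with P. pachyrhizi spores; 24 h saturated atmosphere at 22 °C, then 8 days in growth chamber at 22 °C before visual disease rating.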

Zymoseptoria tritici = assay: Test B: test suspension sprayed on wheat seedlings, inoculated next day with Zymoseptoria tritici (wheat leaf blotch), visual disease rating; details: for Test B rating (% disease control): relative to the controls
[1] = system: Puccinia recondita f. sp. tritici; assay: Test C: test suspension sprayed on wheat seedlings, inoculated next day with Puccinia recondita f. sp. tritici (wheat leaf rust), visual disease rating; details: for Test C rating (% disease control): relative to the controls
Outline: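 Wheat seedlings received a run-off spray of test suspension (ppm rate as listed; acetone/water 50/50, 250 ppm PEG400 surfactant). Leaf rust spore inoculation followed one day later, then 24 h at 20° C in saturated air and 6 days at 20° C before disease was scored visually.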

Compound	Test A rating (% disease control) (Phakopsora pachyrhizi; Rate 10 ppm test suspension) [%]	Test C rating (% disease control) ([1]; Rate 10 ppm test suspension) [%]	Test B rating (% disease control) (Zymoseptoria tritici; 250 ppm test suspension)	further results
O=C(c1csc(Cc2ccc(-c3noc(C(F)(F)F)n3)cc2)n1)N1CCOCC1 [compound 487]	100	100	–	Test B rating (% disease control) (Zymoseptoria tritici; 100 ppm test suspension (double asterisk)): 98** %
CCNC(=O)c1csc(Cc2ccc(-c3noc(C(F)(F)F)n3)cc2)n1 [compound 488]	100	100	99* %	–
COCC(COC)NC(=O)c1csc(Cc2ccc(-c3noc(C(F)(F)F)n3)cc2)n1 [compound 489]	100	99	92* %	–
CON=C(CCl)COC(=O)c1cnn(Cc2ccc(-c3noc(C(F)(F)F)n3)cc2)c1 [compound 494]	100	0	47* %	–
O=C(CCl)COC(=O)c1cnn(Cc2ccc(-c3noc(C(F)(F)F)n3)cc2)c1 [compound 495]	100	0	43* %	–
CC1(C)OCC(COC(=O)c2cnn(Cc3ccc(-c4noc(C(F)(F)F)n4)cc3)c2)O1 (stereo not drawn) [compound 496]	100	0	48* %	–
CN(C)C(=O)C1=NOC(COc2cccc(-c3noc(C(F)(F)F)n3)c2)C1 (stereo not drawn) [compound 502]	–	–	62%	Test A rating (% disease control) (Phakopsora pachyrhizi; Rate 250 ppm test suspension): 100%; Test C rating (% disease control) ([1]; Rate 250 ppm test suspension): 100%
ethyl 1-[[4-[5-(trifluoromethyl)-1,2,4-oxadiazol-3-yl]phenyl]methyl]-1H-pyrazole-4-carboxylate [Compound 83]	–	–	–	Test A disease control rating (Phakopsora pachyrhizi; 270 ppm test suspension): 100%; Test B disease control rating (Zymoseptoria tritici; 270 ppm test suspension): 5%; Test C disease control rating ([1]; 270 ppm test suspension): 100%
methyl 1,2-dihydro-2-oxo-1-[[4-[5-(trifluoromethyl)-1,2,4-oxadiazol-3-yl]phenyl]methyl]-4-pyridinecarboxylate [Compound 24]	–	–	–	Test A disease control rating (Phakopsora pachyrhizi; 270 ppm test suspension): 100%; Test B disease control rating (Zymoseptoria tritici; 270 ppm test suspension): 18%; Test C disease control rating ([1]; 270 ppm test suspension): 100%
methyl 2-[[4-[5-(trifluoromethyl)-1,2,4-oxadiazol-3-yl]-phenoxy]methyl]oxazole-4-carboxylate [Compound 403]	–	–	–	Test A disease control rating (Phakopsora pachyrhizi; 250 ppm test suspension): 100%; Test B disease control rating (Zymoseptoria tritici; 250 ppm test suspension): 93%; Test C disease control rating ([1]; 250 ppm test suspension): 100%
methyl 4,5-dihydro-2-[[4-[5-(trifluoromethyl)-1,2,4-oxadiazol-3-yl]phenyl]methyl]-4-oxazolecarboxylate [Compound 74]	–	–	–	Test A disease control rating (Phakopsora pachyrhizi; 250 ppm test suspension): 100%; Test B disease control rating (Zymoseptoria tritici; 250 ppm test suspension): 0%; Test C disease control rating ([1]; 250 ppm test suspension): 96%
α-(phenylamino)-4-[5-(trifluoromethyl)-1,2,4-oxadiazol-3-yl]benzeneacetonitrile [Compound 13]	–	–	–	Test A disease control rating (Phakopsora pachyrhizi; 250 ppm test suspension): 100%; Test B disease control rating (Zymoseptoria tritici; 250 ppm test suspension): 86%; Test C disease control rating ([1]; 250 ppm test suspension): 100%
